Experimental data: US9249453B2, “Method for identifying a malodor inhibitor” (Kao Corporation, priority 2011, dated 2016)

Tests used:
Format in all cases: cell-based
OR2W1 = molecular target: T1, OR2W1 (Homo sapiens, UniProt Q9Y3N9); test: Luciferase reporter assay: suppression of the skatole response of OR2W1 expressed in HEK293 cells; conditions: 4 h; test substance 100 μM mixed with 300 μM skatole, HEK293 cells expressing OR2W1; read-out: Inhibition rate 2W1
T1 construct: expressed in transfected cells; host or cells: HEK293
T1 sequence (Q9Y3N9 1-320): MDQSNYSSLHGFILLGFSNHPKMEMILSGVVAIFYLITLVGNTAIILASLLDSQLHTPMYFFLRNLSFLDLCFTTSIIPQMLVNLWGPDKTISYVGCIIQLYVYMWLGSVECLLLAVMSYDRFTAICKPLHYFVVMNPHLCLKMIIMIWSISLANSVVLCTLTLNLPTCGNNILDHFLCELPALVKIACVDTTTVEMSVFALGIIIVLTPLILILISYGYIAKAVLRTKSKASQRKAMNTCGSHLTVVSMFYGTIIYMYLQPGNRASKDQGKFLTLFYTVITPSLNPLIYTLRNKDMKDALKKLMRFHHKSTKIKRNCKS
Procedure: (§1) A reaction solution having a composition shown in Table 1 was prepared on a clean bench, and left to stand for 15 minutes. The solution was dispensed to each well of a 96-well plate (BD). Subsequently, HEK293 cells (100 μL, 3×10^5 cells/cm^2) were seeded in each well and cultured for 24 hours in an incubator at 37° C. and under 5% CO2 conditions.
(§2) The olfactory receptor expressed in HEK293 cells activates adenylate cyclase with the aid of Gαs present in cells, to thereby increase intracellular cAMP level. In this study, odorant response was measured by a luciferase reporter gene assay which monitored the intracellular cAMP level as the luminescence value derived from a firefly luciferase gene (fluc2P-CRE-hygro). Also, a Renilla luciferase gene fused downstream of a CMV promoter (hRluc-CMV) was also transfected to HEK293 cells as an internal standard to correct errors in gene transfer efficiency and number of cells.
(§3) Cell culturing was performed for four hours in a CO2-incubator, whereby the luciferase gene sufficiently expressed in the cells. Luciferase activity was measured by means of a Dual-Glo™ luciferase assay system (promega) according to an instruction manual thereof. The luminescence value derived from firefly luciferase induced by odorant stimulation was divided by the luminescence value of cells which were not stimulated with odorants. The thus-obtained—called “fold increase”—was employed as an index for response intensity.
(§4) The response inhibition rate of a test substance was calculated as follows. Firstly, luminescence value derived from firefly luciferase induced by stimulation with skatole (X), and luminescence value in cells which expressed the same receptor but were not stimulated with skatole (Y) were determined. By subtracting Y from X, the receptor activity by stimulation with skatole alone (X−Y) was determined. Similarly, the luminescence value induced by stimulation with a mixture of skatole and a test substance (Z) was determined. Through subtracting Y (the luminescence value in cells which expressed the same receptor but were not stimulated with skatole) from Z, the receptor activity (Z−Y) by stimulation with a mixture of skatole and the test substance was obtained. From the thus-obtained receptor activity by stimulation with skatole alone (X−Y) and the receptor activity in the presence of a test material (Z−Y), the response inhibition rate of the test substance was calculated by the following equation: Inhibition rate (%)={1−(Z−Y)/(X−Y)}×100.
(§5) In each case, multiple independent experiments were performed in duplicate, and the average of each experiment was used.

OR8H1 = molecular target: T2, OR8H1 (Homo sapiens, UniProt Q8NGG4); test: Luciferase reporter assay: suppression of the skatole response of OR8H1 expressed in HEK293 cells; conditions: 4 h; test substance 100 μM mixed with 300 μM skatole, HEK293 cells expressing OR8H1; read-out: Inhibition rate 8H1
T2 construct: expressed in transfected cells; host or cells: HEK293
T2 sequence (Q8NGG4 1-311): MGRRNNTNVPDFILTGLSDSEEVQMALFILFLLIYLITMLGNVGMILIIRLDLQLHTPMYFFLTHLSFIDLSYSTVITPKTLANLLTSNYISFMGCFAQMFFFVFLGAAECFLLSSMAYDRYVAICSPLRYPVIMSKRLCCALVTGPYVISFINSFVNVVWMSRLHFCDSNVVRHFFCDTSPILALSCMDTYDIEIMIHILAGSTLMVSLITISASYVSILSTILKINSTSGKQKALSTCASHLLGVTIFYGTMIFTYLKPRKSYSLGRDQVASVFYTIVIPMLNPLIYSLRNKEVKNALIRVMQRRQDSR
Procedure: as §1, §2, §3, §4, §5

OR5K1 = molecular target: T3, OR5K1 (Homo sapiens, UniProt Q8NHB7); test: Luciferase reporter assay: suppression of the skatole response of OR5K1 expressed in HEK293 cells; conditions: 4 h; test substance 100 μM mixed with 300 μM skatole, HEK293 cells expressing OR5K1; read-out: Inhibition rate 5K1
T3 construct: expressed in transfected cells; host or cells: HEK293
T3 sequence (Q8NHB7 1-308): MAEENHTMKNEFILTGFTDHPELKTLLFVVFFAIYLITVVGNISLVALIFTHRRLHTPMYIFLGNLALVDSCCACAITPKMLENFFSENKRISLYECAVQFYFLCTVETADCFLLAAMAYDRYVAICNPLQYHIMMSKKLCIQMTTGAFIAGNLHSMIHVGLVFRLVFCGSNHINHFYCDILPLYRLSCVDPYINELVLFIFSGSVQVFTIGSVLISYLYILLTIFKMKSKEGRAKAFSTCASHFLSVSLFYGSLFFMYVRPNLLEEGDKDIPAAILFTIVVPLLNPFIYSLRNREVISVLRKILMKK
Procedure: as §1, §2, §3, §4, §5

OR5P3 = molecular target: T4, OR5P3 (Homo sapiens, UniProt Q8WZ94); test: Luciferase reporter assay: suppression of the skatole response of OR5P3 expressed in HEK293 cells; conditions: test substance 100 μM mixed with 300 μM skatole, HEK293 cells expressing OR5P3
T4 construct: expressed in transfected cells; host or cells: HEK293
T4 sequence (Q8WZ94 1-311): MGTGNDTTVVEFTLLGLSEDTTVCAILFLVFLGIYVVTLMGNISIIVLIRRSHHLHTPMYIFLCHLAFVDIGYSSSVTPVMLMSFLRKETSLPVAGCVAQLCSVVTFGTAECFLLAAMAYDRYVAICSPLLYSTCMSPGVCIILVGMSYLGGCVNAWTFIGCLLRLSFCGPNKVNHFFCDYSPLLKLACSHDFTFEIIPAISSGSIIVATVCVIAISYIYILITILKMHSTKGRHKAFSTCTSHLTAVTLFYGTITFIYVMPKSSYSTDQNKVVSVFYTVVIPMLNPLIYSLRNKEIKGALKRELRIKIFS
Procedure: as §1, §2, §3, §4, §5

For `CC(C)(C)C1CCC(O)CC1` (stereo not shown) [p-tert-butlcyclohexanol, 4-(1,1-Dimethylethyl)-cyclohexanol], the inhibition at 100 µM (OR2W1) was < 20%, the inhibition at 100 µM (OR8H1) was > 80% and the inhibition at 100 µM (OR5K1) was > 80%. The “Inhibition rate 5P3” value (OR5P3) was “A (A >80%)”.
With `CC(C)=CCCC(C)CC=O` (stereo not shown) [citronellal, 3,7-Dimethyl-6-octenal] the inhibition at 100 µM (OR2W1) was 20 to 50%, the inhibition at 100 µM (OR8H1) was < 20% and the inhibition at 100 µM (OR5K1) was 20 to 50%. For the same compound, the “Inhibition rate 5P3” value (OR5P3) was “C (C >20%)”.
For `CCC(O)COC1CCCCC1C(C)(C)C` (stereo not shown) [Ambercore, 1-(2-tert-Butylcyclohexyloxy)-2-butanol], the inhibition at 100 µM (OR2W1) was > 80%, the inhibition at 100 µM (OR8H1) was > 80% and the inhibition at 100 µM (OR5K1) was 50 to 80%. For the same compound, the “Inhibition rate 5P3” value (OR5P3) was “B (B >50%)”.
With `CC(CCO)CCc1ccccc1` (stereo not shown) [phenylhexanol, 3-Methyl-5-phenyl-1-pentanol] the inhibition at 100 µM (OR2W1) was < 20%, the inhibition at 100 µM (OR8H1) was < 20% and the inhibition at 100 µM (OR5K1) was < 20%. For the same compound, the “Inhibition rate 5P3” value (OR5P3) was “A (A >80%)”.
